Measured values: publication PMC6722136, “Engineered Carbonic Anhydrase VI-Mimic Enzyme Switched the Structure and Affinities of Inhibitors” (Scientific Reports, 2019)
Where two headings read alike, the source gives them in different places.

Key:
[1] = pKa of sulfonamide amino group of inhibitor; cited from earlier work
[2] = target: T1, CA VI (Homo sapiens, UniProt P23280); conditions: FTSA, pH 7.0, 37 °C; read-out: Kd_obs CA VI; cited from earlier work
T1 construct: made in house; host or cells: E. coli
T1 sequence (P23280 18-308): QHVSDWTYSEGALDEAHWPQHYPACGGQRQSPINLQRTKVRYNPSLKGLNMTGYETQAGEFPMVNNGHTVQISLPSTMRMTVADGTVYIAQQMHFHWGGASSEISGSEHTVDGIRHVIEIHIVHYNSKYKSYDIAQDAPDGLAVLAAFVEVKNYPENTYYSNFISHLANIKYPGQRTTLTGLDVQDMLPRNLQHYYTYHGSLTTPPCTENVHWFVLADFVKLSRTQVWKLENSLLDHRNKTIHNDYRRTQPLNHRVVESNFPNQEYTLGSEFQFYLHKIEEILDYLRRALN

[3] = target: T2, CA VI-mimic (CA II mutant A65T, N67Q, F130Y, V134Q, L203T) (Homo sapiens, UniProt P00918, A65T/F130Y/L203T/N67Q/V134Q); assay: Fluorescent thermal shift assay (FTSA), inhibitor binding to CA VI-mimic; conditions: for difference between Kd_obs and Kd_intr for CA VI-mimic / Kd: FTSA; for difference between Kd_obs and Kd_intr for CA VI-mimic: 37 °C; for Kd: read-out: Kd_obs CA VI-mimic
T2 construct: encoding full length CA II (1-260), was used in site-directed mutagenesis; made in house; host or cells: E. coli BL21(DE3)

[4] = target: T3, CA II (Homo sapiens, UniProt P00918); conditions: FTSA, pH 7.0, 37 °C; read-out: Kd_obs CA II; cited from earlier work
T3 construct: encoding full length CA II (1-260), was used in site-directed mutagenesis; made in house; host or cells: E. coli

[5] = target: T1, CA VI; assay: Stopped-flow CO2 hydration assay (SFA), inhibition of CA VI; format: biochemical
[6] = SFA pH 7.5, measured at 23 °C, extrapolated to 37 °C by van't Hoff equation, read-out: Kd_obs CA VI by SFA (in parentheses)
[7] = SFA, pH 7.5, 23 °C, read-out: Kd_obs CA VI by SFA

Row | SMILES | pKa_SA [1] | Kd [2] [nM] | other results
1 | NS(=O)(=O)C(F)(F)F [Inhibitor 1] | 6.02 |  | 
2 | CCOc1ccc2nc(S(N)(=O)=O)sc2c1 [Inhibitor 2] | 7.82 |  | 
3 | CC(=O)/N=c1/sc(S(N)(=O)=O)nn1C [Inhibitor 3] | 6.86 |  | 
4 | NS(=O)(=O)c1c(F)c(F)c(F)c(F)c1F [Inhibitor 4] | 8.12 | 430 | 
5 | NS(=O)(=O)c1c(F)c(F)c(N2CCOCC2)c(F)c1F [Inhibitor 5] | 8.61 | 1100 | 
6 | NS(=O)(=O)c1c(F)c(F)c(SCCO)c(F)c1F [Inhibitor 6] | 8.14 |  | 
7 | NNc1c(F)c(F)c(S(N)(=O)=O)c(F)c1F [Inhibitor 7] | 8.84 | 1000 | 
8 | NS(=O)(=O)c1c(F)c(F)c(NCc2ccccc2)c(F)c1F [Inhibitor 8] | 8.47 | 1200 | 
9 | NS(=O)(=O)c1c(F)c(F)c(Sc2ccccc2)c(F)c1F [Inhibitor 9] | 7.80 | 200 | 
10 | NS(=O)(=O)c1c(F)c(F)c(S(=O)(=O)CCO)c(F)c1F [Inhibitor 10] | 7.28 |  | difference between Kd_obs and Kd_intr for CA VI-mimic [3]: lower than 10 fold
11 | NS(=O)(=O)c1c(F)c(F)c(S(=O)(=O)CCO)c(F)c1NCc1ccccc1 [Inhibitor 11] | 7.85 | 130 | Kd [4]: 83 nM; Kd ([3]; pH 7.0, 37 °C): 140 nM
12 | NS(=O)(=O)c1c(F)c(F)c(Sc2nc(-c3ccccc3)c(-c3ccccc3)[nH]2)c(F)c1F [Inhibitor 12] | 7.69 | 140 | 
13 | NS(=O)(=O)c1c(F)c(F)c(Sc2nc3ccccc3s2)c(F)c1F [Inhibitor 13] | 7.83 | 200 | 
14 | Cc1cc(C)nc(Sc2c(F)c(F)c(S(N)(=O)=O)c(F)c2F)n1 [Inhibitor 14] | 8.02 | 1000 | Kd [5, 6]: 630 nM; Kd [5, 7]: 290 nM
15 | NS(=O)(=O)c1c(F)c(F)c(SCCc2ccccc2)c(F)c1F [Inhibitor 15] | 8.05 | 400 | 
16 | NS(=O)(=O)c1ccc(SCCc2ccccc2)cc1 [Inhibitor 16] | 10.1 | 1100 | difference between Kd_obs and Kd_intr for CA VI-mimic [3]: 2500 fold
17 | NS(=O)(=O)c1c(F)c(F)c(SCCc2ccccc2)c(F)c1N1CCOCC1 [Inhibitor 17] | 8.67 | 100000 | Kd [3]: 100000 nM
18 | NS(=O)(=O)c1c(F)c(F)c(S(=O)(=O)c2ccccc2)c(F)c1F [Inhibitor 18] | 7.07 | 160 | difference between Kd_obs and Kd_intr for CA VI-mimic [3]: lower than 10 fold
19 | NS(=O)(=O)c1c(F)c(F)c(SCCC(=O)O)c(F)c1F [Inhibitor 19] | 7.97 | 500 | 
20 | CC(C)Nc1c(F)c(SCCc2ccccc2)c(F)c(F)c1S(N)(=O)=O [Inhibitor 20] | 8.67 | 3300 | Kd ([3]; pH 7.0, 37 °C): 2500 nM
21 | COc1ccc(CNc2c(F)c(SCCc3ccccc3)c(F)c(F)c2S(N)(=O)=O)cc1OC [Inhibitor 21] | 8.67 | 20000 | Kd [4]: 1800 nM; Kd ([3]; pH 7.0, 37 °C): 3300 nM
22 | CCCSc1c(F)c(F)c(S(N)(=O)=O)c(F)c1F [Inhibitor 22] | 8.15 | 140 | 

Row | SMILES | pKa_SA [1] | Kd [2] [nM] | other results
23 | CCCSc1ccc(S(N)(=O)=O)cc1 [Inhibitor 23] | 10.2 | 830 | Kd [5, 6]: 3900 nM; Kd [5, 7]: 1800 nM; difference between Kd_obs and Kd_intr for CA VI-mimic [3]: 3200 fold
24 | COc1ccc(CNc2c(F)c(SCCO)c(F)c(F)c2S(N)(=O)=O)cc1OC [Inhibitor 24] | 8.67 | 11000 | Kd [4]: 1300 nM; Kd ([3]; pH 7.0, 37 °C): 5000 nM
25 | NS(=O)(=O)c1c(F)c(F)c(S(=O)(=O)CCO)c(NC2CCCCCCC2)c1F [Inhibitor 25] | 8.01 |  | 
26 | NS(=O)(=O)c1c(F)c(F)c(S(=O)(=O)CCc2ccccc2)c(F)c1F [Inhibitor 26] | 7.22 | 140 | difference between Kd_obs and Kd_intr for CA VI-mimic [3]: lower than 10 fold
27 | NS(=O)(=O)c1c(F)c(F)c(S(=O)(=O)CCc2ccccc2)c(NC2Cc3ccccc3C2)c1F [Inhibitor 27] | 7.87 | 2000 | Kd [4]: 35 nM; Kd ([3]; pH 7.0, 37 °C): 1000 nM
28 | NS(=O)(=O)c1c(F)c(F)c(S(=O)(=O)CCc2ccccc2)c(NCc2ccccc2)c1F [Inhibitor 29] | 7.87 | 110 | Kd ([3]; pH 7.0, 37 °C): 200 nM
29 | NS(=O)(=O)c1ccc(SCCO)cc1 [Inhibitor 30] | 9.96 |  | 
30 | NS(=O)(=O)c1c(F)c(F)c(S(=O)(=O)CCc2ccccc2)c(N[C@H](c2ccccc2)[C@H](O)c2ccccc2)c1F [Inhibitor 31] | 7.87 | 1000 | Kd [4]: 33 nM; Kd ([3]; pH 7.0, 37 °C): 2000 nM; weakening of intrinsic binding to CA VI-mimic relative to comparison compound ([3]; Kd_intr, 30 vs 23, 6 vs 22, 19 vs 22, 31 vs 26): 9 fold
31 | NS(=O)(=O)c1c(F)c(F)c(SCc2ccccc2)c(F)c1F [Inhibitor 32] | 8.53 | 330 | stronger intrinsic binding to CA VI-mimic than inhibitor 9 ([3]; Kd_intr): 4 fold; stronger intrinsic binding to CA VI-mimic than inhibitor 15 ([3]; Kd_intr): 2 fold
32 | CCOC(=O)c1cnc(SCC(=O)c2ccc(Cl)c(S(N)(=O)=O)c2)[nH]c1=O [Inhibitor 33] | 8.90 |  | 
33 | NS(=O)(=O)c1ccc(C(=O)CSc2ccccc2)cc1Cl [Inhibitor 34] | 8.70 | 1100 | Kd [4]: 5.6 nM; Kd ([3]; pH 7.0, 37 °C): 330 nM
34 | Cc1cc(C)nc(SCC(=O)c2cccc(S(N)(=O)=O)c2)n1 [Inhibitor 35] | 9.40 |  | 
35 | CCc1cnc(SCC(=O)c2ccc(S(N)(=O)=O)c(Cl)c2)nc1 [Inhibitor 36] | 8.90 |  | 
36 | CCCc1cnc(SCC(=O)c2ccc(S(N)(=O)=O)c(Cl)c2)nc1 [Inhibitor 37] | 8.90 |  | 
37 | CCCc1cnc(SCC(=O)c2ccc(S(N)(=O)=O)cc2)nc1 [Inhibitor 38] | 9.40 |  | 
38 | Cc1cc(=O)[nH]c(SCC(=O)c2ccc(S(N)(=O)=O)c(Cl)c2)n1 [Inhibitor 39] | 8.90 |  | 
39 | NS(=O)(=O)c1cccc(C(=O)Cn2cnc3ccccc32)c1 [Inhibitor 40] | 9.60 | 6700 | Kd [4]: 3600 nM; Kd ([3]; pH 7.0, 37 °C): 3300 nM
40 | NS(=O)(=O)c1ccc(C(=O)Cn2cnc3ccccc32)cc1Cl [Inhibitor 41] | 8.30 | 3300 | 
41 | NS(=O)(=O)c1ccc(C(=O)Cn2c(Cc3ccccc3)nc3ccccc32)cc1Cl [Inhibitor 42] | 8.70 | 1400 | Kd ([3]; pH 7.0, 37 °C): 330 nM
42 | NS(=O)(=O)c1cccc(C(=O)Cn2c(Cc3ccccc3)nc3ccccc32)c1 [Inhibitor 43] | 9.60 | 10000 | Kd ([3]; pH 7.0, 37 °C): 3300 nM
43 | NS(=O)(=O)c1cccc(C(=O)CSc2nc3ccccc3s2)c1 [Inhibitor 44] | 9.60 | 3300 | Kd [4]: 140 nM; Kd ([3]; pH 7.0, 37 °C): 500 nM
44 | C=CCNc1nc(-c2ccc(S(N)(=O)=O)c(Cl)c2)cs1 [Inhibitor 46] | 9.40 | 17000 | Kd [4]: 100 nM; Kd ([3]; pH 7.0, 37 °C): 1100 nM
